Here are results for 13 compounds from patent publication US20240262814A1, “MODULATORS OF TREX1” (Constellation Pharmaceuticals, Inc., priority 2021, published 2024).

As a reminder, the IC50 is the concentration that gives 50% inhibition. A low value points to inhibition by little substance.

One assay addresses T1, human TREX2 (Homo sapiens, UniProt Q9BQ50).
T1 construct: human TREX2 (residues M44-A279, expressed in E. coli); made in house; host or cells: E. coli
T1 sequence (Q9BQ50 44-279 isoform Q9BQ50-1): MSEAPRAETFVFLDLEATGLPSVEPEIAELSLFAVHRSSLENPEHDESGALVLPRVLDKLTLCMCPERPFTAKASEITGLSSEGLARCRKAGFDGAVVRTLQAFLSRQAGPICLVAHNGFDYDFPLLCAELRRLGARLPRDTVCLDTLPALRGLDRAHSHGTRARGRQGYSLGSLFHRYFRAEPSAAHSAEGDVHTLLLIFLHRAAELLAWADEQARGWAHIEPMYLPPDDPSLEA
In words: hTREX2 Biochemical Assay (selectivity hTREX1 vs hTREX2). The settings on record: biochemical selectivity for hTREX1 vs hTREX2. As to the method: Degradation of the dsDNA liberates free fluorophore to produce a fluorescent signal. Specifically, 7.5 p L of N-terminally His-Tev tagged human TREX2 (residues M44-A279, expressed in E. coli and purified in house) in reaction buffer (50 mM Tris, 150 mM NaCl, 2 mM DTT, 0.1 mg/mL BSA, 0.01% (w/v) Tween-20, 5 mM MgCl2, pH 7.4) was added to a 384-well Black ProxiPlate Plus (PerkinElmer) which already contained compound (150 nL) at varying concentrations as a 10 point dose-response in DMSO. The plate was incubated at 25° C. for 4 hours. Reactions were initiated by adding 7.5 μL of dsDNA substrate (Strand A: 5′ TEX615/GCT AGG CAG 3′; Strand B: 5′ CTG CCT AGC/IAbRQSp (IDT)) in reaction buffer. Final concentrations were 50 pM TREX2, 60 nM dsDNA substrate in reaction buffer with 1.0% DMSO (v/v). After 18 hours at 25° C., reactions were quenched by the addition of 2 μL of 500 mM EDTA. Final concentrations in the quenched reaction mixture were 44 pM TREX2, 53 nM DNA and 59 mM EDTA in a volume of 17 μL. After a 5-minute incubation at room temperature, plates were read in an EnVision plate reader (PerkinElmer) measuring fluorescence at 615 nm following excitation w/ 570 nm light. IC50 values were calculated by comparing the measured fluorescence at 615 nm relative to control wells pre-quenched w/ stop buffer (100% inhibition) and no inhibitor (0% inhibition) controls as using non-linear least square four parameter fits and either Genedata or GraphPad Prism (GraphPad Software, Inc.).

Another assay deals with T2, human TREX1 (Homo sapiens, UniProt Q9NSU2).
T2 construct: N-terminally His-Tev tagged full length human TREX1; made in house; host or cells: E. coli
T2 sequence (Q9NSU2 1-314): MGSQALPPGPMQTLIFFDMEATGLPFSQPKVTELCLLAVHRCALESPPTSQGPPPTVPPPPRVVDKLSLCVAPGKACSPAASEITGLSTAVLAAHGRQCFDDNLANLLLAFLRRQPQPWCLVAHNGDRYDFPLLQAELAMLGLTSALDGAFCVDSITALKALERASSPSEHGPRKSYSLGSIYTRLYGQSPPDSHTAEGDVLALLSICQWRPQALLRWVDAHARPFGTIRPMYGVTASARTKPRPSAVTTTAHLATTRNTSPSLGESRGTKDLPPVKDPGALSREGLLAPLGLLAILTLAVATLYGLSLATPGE
In words: hTREX1 Biochemical Assay (fluorescence, dsDNA substrate degradation). The settings on record: full length human TREX1, 4 h pre-incubation, 18 h reaction at 25° C. As to the method:
(§1) Degradation of the dsDNA liberates free fluorophore to produce a fluorescent signal. Specifically, 7.5 μL of N-terminally His-Tev tagged full length human TREX1 (expressed in E. coli and purified in house) in reaction buffer (50 mM Tris, 150 mM NaCl, 2 mM DTT, 0.1 mg/mL BSA, 0.01% (w/v) Tween-20, 5 mM MgCl2, pH 7.4) was added to a 384-well Black ProxiPlate Plus (PerkinElmer) which already contained compound (150 nL) at varying concentrations as a 10 point dose-response in DMSO. The plate was incubated at 25° C. for 4 hours. Reactions were initiated by adding 7.5 μL of dsDNA substrate (Strand A: 5′ TEX615/GCT AGG CAG 3′; Strand B: 5′ CTG CCT AGC/IAbRQSp (Integrated DNA Technologies)) in reaction buffer. Final concentrations were 4 pM TREX1, 60 nM dsDNA substrate in reaction buffer with 1.0% DMSO (v/v). After 18 hours at 25° C., reactions were quenched by the addition of 2 p L of 500 mM EDTA. Final concentrations in the quenched reaction were 3.5 pM TREX1, 53 nM DNA and 59 mM EDTA in a volume of 17 μL. After a 5-minute incubation at room temperature, plates were read in an EnVision plate reader (PerkinElmer) measuring fluorescence at 615 nm following excitation w/ 570 nm light. IC50 values were calculated by comparing the measured fluorescence at 615 nm relative to control wells pre-quenched w/ EDTA (100% inhibition) and no inhibitor (0% inhibition) controls as using non-linear least square four parameter fits and either Genedata or GraphPad Prism (GraphPad Software, Inc.).

A further assay has as its target T3, mouse TREX1 (Mus musculus, UniProt Q91XB0).
T3 construct: N-terminally His-Tev tagged full length mouse TREX1; made in house; host or cells: E. coli
T3 sequence (Q91XB0 1-314): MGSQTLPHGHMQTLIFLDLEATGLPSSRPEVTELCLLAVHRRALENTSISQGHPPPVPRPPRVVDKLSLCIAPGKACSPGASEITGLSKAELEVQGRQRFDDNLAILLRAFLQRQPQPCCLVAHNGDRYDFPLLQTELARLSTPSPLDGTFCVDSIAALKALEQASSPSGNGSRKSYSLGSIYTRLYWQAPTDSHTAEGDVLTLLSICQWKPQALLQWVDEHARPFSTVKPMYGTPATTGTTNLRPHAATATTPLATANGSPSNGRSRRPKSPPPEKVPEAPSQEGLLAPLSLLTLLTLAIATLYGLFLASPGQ
In words: mTREX1 Biochemical Assay (fluorescence, dsDNA substrate degradation). Conditions: full length mouse TREX1, 4 h pre-incubation, 18 h reaction at 25° C. As to the method: as §1, with “Specifically, 7.5 p L of N-terminally” for “Specifically, 7.5 μL of N-terminally”, “full length mouse TREX1 (expressed” for “full length human TREX1 (expressed”, “concentrations were 6 pM TREX1,” for “concentrations were 4 pM TREX1,”, “reaction were 5.3 pM TREX1,” for “reaction were 3.5 pM TREX1,”, “of 17 p L. After a” for “of 17 μL. After a”

Consider `C[C@H](c1nc(C(=O)Nc2cnoc2)c(O)c(=O)n1C)[C@H](c1ccccc1)c1ccccc1Cl` (single isomer, unassigned) [Example 2 Isomer 1, 2-[1-(2-chlorophenyl)-1-phenylpropan-2-yl]-5-hydroxy-1-methyl-N-(1,2-oxazol-4-yl)-6-oxopyrimidine-4-carboxamide], for which the “hTREX1 vs hTREX2 selectivity” value on human TREX2 was “A (A = <25 fold selective for hTREX1)”. For the same compound, the IC50 is 1 to 10 nM at human TREX1 and more than 10 nM at mouse TREX1.
The like results for `C[C@H](c1nc(C(=O)Nc2cnoc2)c(O)c(=O)n1C)[C@H](c1ccccc1)c1ccccc1Cl` (single isomer, unassigned) [Example 2 Isomer 2, 2-(1-(2-chlorophenyl)-1-phenylpropan-2-yl)-5-hydroxy-N-(isoxazol-4-yl)-1-methyl-6-oxo-1,6-dihydropyrimidine-4-carboxamide] were, in that order, “A (A = <25 fold selective for hTREX1)”, 10 to 100 nM and more than 10 nM.
The like results for `C[C@H](c1nc(C(=O)Nc2cnoc2)c(O)c(=O)n1C)[C@H](c1ccccc1)c1ccccc1Cl` (single isomer, unassigned) [Example 2 Isomer 4, 2-(1-(2-chlorophenyl)-1-phenylpropan-2-yl)-5-hydroxy-N-(isoxazol-4-yl)-1-methyl-6-oxo-1,6-dihydropyrimidine-4-carboxamide] were, in that order, “A (A = <25 fold selective for hTREX1)”, more than 100 nM and more than 10 nM.
The like results for `CC(c1nc(C(=O)Nc2cnoc2)c(O)c(=O)n1C)C(c1ccccc1)c1ccccc1C#N` (single isomer, unassigned) [Example 3 Isomer 1] were, in that order, “B (B = 25 to 50 fold selective for hTREX1)”, 1 to 10 nM and more than 10 nM.
On to `CC(c1nc(C(=O)Nc2cnoc2)c(O)c(=O)n1C)C(c1ccccc1)c1ccccc1C#N` (single isomer, unassigned) [Example 3 Isomer 2], for which the “hTREX1 vs hTREX2 selectivity” value on human TREX2 is “A (A = <25 fold selective for hTREX1)”. Also, the results for the IC50 against human TREX1 and against mouse TREX1 were more than 100 nM and more than 10 nM, respectively.
On to `CC(c1nc(C(=O)Nc2cnoc2)c(O)c(=O)n1C)C(c1ccccc1)c1ccccc1C#N` (single isomer, unassigned) [Example 3 Isomer 3], for which the “hTREX1 vs hTREX2 selectivity” value at human TREX2 was “A (A = <25 fold selective for hTREX1)”. Besides, the IC50 is more than 100 nM against human TREX1 and more than 10 nM against mouse TREX1.
In the same order, the values of `CC(c1nc(C(=O)Nc2cnoc2)c(O)c(=O)[nH]1)C(c1ccccc1C#N)c1ccccc1C#N` (single isomer, unassigned) [Example 5 Isomer 1, 2-(1,1-bis(2-cyanophenyl)propan-2-yl)-5-hydroxy-N-(isoxazol-4-yl)-6-oxo-1,6-dihydropyrimidine-4-carboxamide] are “B (B = 25 to 50 fold selective for hTREX1)”, less than 1 nM and 1 to 10 nM.
In the same order, the values of `CC(c1nc(C(=O)Nc2cnoc2)c(O)c(=O)n1C)C(c1ccccc1)c1cc(F)ccc1C#N` (single isomer, unassigned) [Example 6 Isomer 1] are “C (C = >50 fold selective for hTREX1)”, 1 to 10 nM and more than 10 nM.
For `CC(c1nc(C(=O)Nc2cnoc2)c(O)c(=O)n1C)C(c1ccccc1)c1cc(F)ccc1C#N` (single isomer, unassigned) [Example 6 Isomer 3], the “hTREX1 vs hTREX2 selectivity” value at human TREX2 is “A (A = <25 fold selective for hTREX1)”. The IC50 was more than 100 nM at human TREX1 and more than 10 nM against mouse TREX1.
In the same order, the values of `CC(c1nc(C(=O)Nc2cnoc2)c(O)c(=O)n1C)C(c1ccccc1)c1ccc(F)cc1C#N` (single isomer, unassigned) [Example 7 Isomer 1] are “C (C = >50 fold selective for hTREX1)”, less than 1 nM and more than 10 nM.
The like results for `CC(c1nc(C(=O)Nc2cnoc2)c(O)c(=O)n1C)C(c1ccccc1)c1ccc(F)cc1C#N` (single isomer, unassigned) [Example 7 Isomer 2] were, in that order, “A (A = <25 fold selective for hTREX1)”, more than 100 nM and more than 10 nM.
For `CC(c1nc(C(=O)Nc2cnoc2)c(O)c(=O)n1C)C(c1ccccc1)c1ccc(F)cc1C#N` (single isomer, unassigned) [Example 7 Isomer 4], the “hTREX1 vs hTREX2 selectivity” value on human TREX2 is listed as “B (B = 25 to 50 fold selective for hTREX1)”. Besides, the concentration for half-maximal inhibition (IC50) is less than 1 nM on human TREX1 and 1 to 10 nM against mouse TREX1.
In the same order, the values of `CC(c1nc(C(=O)Nc2cnoc2)c(O)c(=O)n1C)C(c1ccccc1)c1cc(Cl)ccc1C#N` (single isomer, unassigned) [Example 8 Isomer 3] are “C (C = >50 fold selective for hTREX1)”, 1 to 10 nM and more than 10 nM.
